Assay results as given in paper PMC10972756, “A helical fulcrum in eIF2B coordinates allosteric regulation of stress signaling” (Nature Chemical Biology, 2023).
Values belong to the molecule of their own block, whether it stands above or below them.

How the values were obtained:
eIF2B(αβγδε)2 decamer [1] = biological target: T1, eIF2B(αβγδε)2 decamer (Homo sapiens, UniProt P49770+Q9UI10); test: hydrogen-deuterium exchange mass spectrometry; type: binding; settings: 20 mM HEPES, 200 mM KCl, 5 mM MgCl2, 1 mM TCEP, pH 7.9; ISRIB pocket, groove between eIF2Bβ and eIF2Bδ'; allosteric
T1 construct: gene EIF2B2; recombinant human eIF2Bα2 (pJT075) mixed with eIF2Bβγδε (pJT073 + pJT074 coexpression); heterodecamer; 2,369 unique amino acids; with Translation initiation factor eIF2B subunit alpha; Translation initiation factor eIF2B subunit gamma; Translation initiation factor eIF2B subunit epsilon

eIF2B(αβγδε)2 decamer [2] = biological target: T2, eIF2B(αβγδε)2 decamer (Homo sapiens, UniProt P49770+Q9UI10, Q9UI10:F443A); test: fluorescence polarization, eIF2B titration; type: binding; settings: labelled compound; 2.5 nM FAM-ISRIB; 20 mM HEPES-KOH pH 7.5, 100 mM KCl, 5 mM MgCl2, 1 mM TCEP; 25 °C; ISRIB pocket; read-out: half-maximal effective concentration
T2 construct: gene EIF2B2; recombinant human eIF2Bα2 (pJT075) mixed with eIF2Bβγδε (pJT073 + pJT074 coexpression); heterodecamer; 2,369 unique amino acids; with Translation initiation factor eIF2B subunit alpha; Translation initiation factor eIF2B subunit gamma; Translation initiation factor eIF2B subunit epsilon

eIF2B(αβγδε)2 decamer [3] = biological target: T1, eIF2B(αβγδε)2 decamer; test: fluorescence polarization, eIF2B titration; type: binding; settings: labelled compound; 2.5 nM FAM-ISRIB; 20 mM HEPES-KOH pH 7.5, 100 mM KCl, 5 mM MgCl2, 1 mM TCEP; 25 °C; ISRIB pocket; read-out: half-maximal effective concentration
eIF2B(αβγδε)2 decamer [4] = biological target: T3, eIF2B(αβγδε)2 decamer (Homo sapiens, UniProt P49770+Q9UI10, Q9UI10:L516A); test: fluorescence polarization, eIF2B titration; type: binding; settings: labelled compound; 2.5 nM FAM-ISRIB; 20 mM HEPES-KOH pH 7.5, 100 mM KCl, 5 mM MgCl2, 1 mM TCEP; 25 °C; ISRIB pocket; read-out: half-maximal effective concentration
T3 construct: gene EIF2B2; recombinant human eIF2Bα2 (pJT075) mixed with eIF2Bβγδε (pJT073 + pJT074 coexpression); heterodecamer; 2,369 unique amino acids; with Translation initiation factor eIF2B subunit alpha; Translation initiation factor eIF2B subunit gamma; Translation initiation factor eIF2B subunit epsilon

eIF2B(αβγδε)2 decamer [5] = biological target: T4, eIF2B(αβγδε)2 decamer (Homo sapiens, UniProt P49770+Q9UI10, Q9UI10:E445A); test: fluorescence polarization, eIF2B titration; type: binding; settings: labelled compound; 2.5 nM FAM-ISRIB; 20 mM HEPES-KOH pH 7.5, 100 mM KCl, 5 mM MgCl2, 1 mM TCEP; 25 °C; ISRIB pocket; read-out: half-maximal effective concentration
T4 construct: gene EIF2B2; recombinant human eIF2Bα2 (pJT075) mixed with eIF2Bβγδε (pJT073 + pJT074 coexpression); heterodecamer; 2,369 unique amino acids; with Translation initiation factor eIF2B subunit alpha; Translation initiation factor eIF2B subunit gamma; Translation initiation factor eIF2B subunit epsilon

[6] = biological target: the molecule itself; test: cryo-EM structure; 20 µM eIF2Bδ^L516A βγδε incubated with 11 µM eIF2Bα2 in 20 mM HEPES-KOH, 200 mM KCl, 5 mM MgCl2, 1 mM TCEP; diluted to 750 nM for grids
eIF2Bβγδ^F443Aε tetramer = eIF2Bβγδ^F443Aε tetramer (human, UniProt P49770 2-351; Q9NR50 1-452; Q9UI10 1-523; Q13144 1-721, δF443A); test: AUC; sedimentation velocity, 40,000 r.p.m., 20 °C, 20 mM HEPES-KOH pH 7.5, 150 mM KCl, 1 mM TCEP, 5 mM MgCl2; tetramer mixed with eIF2Bα2 (2:1 or 1:1 tetramer:dimer); continuous c(S) distribution; settings: both partners purified
eIF2Bβγδ^E445Aε tetramer = eIF2Bβγδ^E445Aε tetramer (human, UniProt P49770 2-351; Q9NR50 1-452; Q9UI10 1-523; Q13144 1-721, δE445A); test: as above; settings: both partners purified

Molecule: O=C(COc1ccc(Cl)c(F)c1)NC12CC(NC(=O)c3cnc(C(F)F)cn3)(C1)C2 [2BAct]
hydrogen-deuterium exchange mass spectrometry (eIF2B(αβγδε)2 decamer [1]): We also observed protection in peptides at the 2BAct binding site

EC50 (eIF2B(αβγδε)2 decamer [2]): 50 ± 8 nM | EC50 (eIF2B(αβγδε)2 decamer [3]): 38 ± 2 nM | EC50 (eIF2B(αβγδε)2 decamer [4]): 169 ± 34 nM | EC50 (eIF2B(αβγδε)2 decamer [5]): 30 ± 2 nM
Molecule: FAM-ISRIB

binding result (eIF2Bβγδ^F443Aε tetramer): binds | binding result (eIF2Bβγδ^E445Aε tetramer): binds
B1: eIF2Bα2 dimer, wild type (complex, human)
chain: DDKELIEYFKSQMKEDPDMASAVAAIRTLLEFLKRDKGETIQGLRANLTSAIETLCGVDSSVAVSSGGELFLRFISLASLEYSDYSKCKKIMIERGELFLRRISLSRNKIADLCHTFIKDGATILTHAYSRVVLRVLEAAVAAKKRFSVYVTESQPDLSGKKMAKALCHLNVPVTVVLDAAVGYIMEKADLVIVGAEGVVENGGIINKIGTNQMAVCAKAQNKPFYVVAESFKFVRLFPLNQQDVPDKFKYKADTLKVAQTGQDLKEEHPWVDYTAPSLITLLFTDLGVLTPSAVSDELIKLYL
notes: also called eIFBα2
binding result [6]: binds
